Reference: US11274078B2, “Drug for treating tumor diseases and having antibacterial antivirus anti-inflammatory effects” (priority 2017, dated 2022)

What follows are compounds tested on HCT-116 tumor cells (assay: Cell proliferation inhibition assay (MTT), HCT-116). Conditions: HCT-116 cells, 48 hours.
Type: cell-based
Procedure: (§1) Case Study I: Antitumor Cell Activity of Naphthalene Diamides • Compounds of Tables 1 and 2 were synthesized in multiple steps according to the procedure of Examples 1-3 using relevant antitumor cell activity assays. The compound synthesized above was tested for IC50 concentration (MIC) against HCT-116, MCF-7, Calu-6 and A549 tumor cells by in vitro cellular activity.
(§2) Case Study II: Cell Proliferation Inhibition Assay • Based on MTT method, briefly plating HCT-116, MCF-7 and A549 cells in a concentration of 2×10^4/ml with complete culture medium in 96-well plates overnight. The volume for each well was 100 μL. Cells were treated with compounds in concentrations of 40, 20, 10, 5, 2.5, 1.25 μmol/L, and cultured at 37° C., 5% CO2 for 48 hours, followed by adding 20 μL of 5 mg/ml MTT reagent per well and continuing to culture for 2˜4 h, respectively. As a control, DMSO solvent was added in an equal volume with concentration of 0.1%. Each sample was tested as 5 replicate wells. Then the supernatant was discarded, and DMSO was added in a volume of 150 μL, followed by shaking and mixing for 15 mins. The absorbance (A) value (A value is proportional to the number of living cells) is measured by a microplate reader at the wavelength of 570 nm, and the average value is taken. The relative cell proliferation inhibition rate (%)=(control group A570—experimental group A570)/control group A570×100%. The concentration of 50% inhibition rate (IC50) of the compound was calculated by the repetition of at least 3 times. The positive control was used as 5-flucrouracil.

Row | Structure (SMILES) | IC50 [µM]
1 | O=C(Nc1ccc2cc(C(=O)Nc3nccs3)ccc2c1)c1ccc(F)cc1 [ABC-02] | 10
2 | Cc1cccc(C(=O)Nc2ccc3cc(C(=O)N4CCN(C)CC4)ccc3c2)c1 [ABC-05] | 10
3 | O=C(NCc1ccc(Cl)nc1)c1ccc2cc(NC(=O)c3ccc(F)cc3)ccc2c1 [ABC-07] | 5.8
4 | Cc1cccc(C(=O)Nc2ccc3cc(C(=O)NCc4ccc(Cl)nc4)ccc3c2)c1 [ABC-09] | 3.5
5 | O=C(Nc1ccc2cc(C(=O)N3CCOCC3)ccc2c1)c1ccc(F)cc1 [ABC-11] | 5.5
6 | COc1ccc(OC)c(C(=O)Nc2ccc3cc(C(=O)NCc4ccc(Cl)nc4)ccc3c2)c1 [ABC-15] | 6.6
7 | O=C(NCc1ccc(Cl)nc1)c1ccc2cc(NC(=O)c3cccc(C(F)(F)F)c3)ccc2c1 [ABC-17] | 3.6
8 | CN1CCN(C(=O)c2ccc3cc(NC(=O)c4cccc(C(F)(F)F)c4)ccc3c2)CC1 [ABC-20] | 24.9
9 | O=C(Nc1ccc2cc(C(=O)NC3CCCCC3)ccc2c1)c1cccc(C(F)(F)F)c1 [ABC-24] | 5
10 | O=C(Nc1ccc2cc(C(=O)Nc3cccc(C(F)(F)F)c3)ccc2c1)c1cccc(C(F)(F)F)c1 [ABC-26] | 3.5
11 | COc1ccc(C(=O)Nc2ccc3cc(C(=O)NC4CC4)ccc3c2)cc1 [ABC-27] | 38.8
12 | O=C(Nc1ccc2cc(C(=O)NC3CC3)ccc2c1)c1cccc(C(F)(F)F)c1 [ABC-28] | 5
13 | COc1ccc(C(=O)Nc2ccc3cc(C(=O)NC(C)C)ccc3c2)cc1 [ABC-29] | 8
14 | Cc1cccc(C(=O)Nc2ccc3cc(C(=O)Nc4nccs4)ccc3c2)c1 [ABC-32] | 5.5
15 | COc1ccc(C(=O)Nc2ccc3cc(C(=O)Nc4cccc(C(F)(F)F)c4)ccc3c2)cc1 [ABC-33] | 3
16 | O=C(Nc1ccc2cc(C(=O)Nc3nccs3)ccc2c1)c1cccc(C(F)(F)F)c1 [ABC-34] | 5.2
17 | COc1ccccc1C(=O)Nc1ccc2cc(C(=O)NC(C)C)ccc2c1 [ABC-38] | 5
18 | CN1CCN(C(=O)c2ccc3cc(NC(=O)c4ccc(Cl)c(Cl)c4)ccc3c2)CC1 [ABC-42] | 20
19 | O=C(Nc1ccc2cc(C(=O)Nc3nccs3)ccc2c1)c1cccc(Cl)c1 [ABC-45] | 10
20 | O=C(Nc1ccc2cc(C(=O)Nc3nccs3)ccc2c1)c1ccc(Cl)c(Cl)c1 [ABC-46] | 2
21 | CC(C)NC(=O)c1ccc2cc(NC(=O)c3cccc(Cl)c3)ccc2c1 [ABC-47] | 2.5
22 | CC(C)NC(=O)c1ccc2cc(NC(=O)c3ccc(Cl)c(Cl)c3)ccc2c1 [ABC-48] | 3.9

Each compound was assayed on MCF-7 tumor cells (assay: Cell proliferation inhibition assay (MTT), MCF-7). Conditions: MCF-7 cells, 48 hours.
Type: cell-based
Procedure: as §1, §2

Row | Structure (SMILES) | IC50 [µM]
23 | O=C(NCc1ccc(Cl)nc1)c1ccc2cc(NC(=O)c3ccc(F)cc3)ccc2c1 [ABC-07] | 7.6
24 | Cc1cccc(C(=O)Nc2ccc3cc(C(=O)NCc4ccc(Cl)nc4)ccc3c2)c1 [ABC-09] | 3.2
25 | O=C(Nc1ccc2cc(C(=O)N3CCOCC3)ccc2c1)c1ccc(F)cc1 [ABC-11] | 3.7
26 | COc1ccc(OC)c(C(=O)Nc2ccc3cc(C(=O)NCc4ccc(Cl)nc4)ccc3c2)c1 [ABC-15] | 3.5
27 | O=C(NCc1ccc(Cl)nc1)c1ccc2cc(NC(=O)c3cccc(C(F)(F)F)c3)ccc2c1 [ABC-17] | 3.2
28 | CN1CCN(C(=O)c2ccc3cc(NC(=O)c4cccc(C(F)(F)F)c4)ccc3c2)CC1 [ABC-20] | 2.7
29 | COc1ccc(C(=O)Nc2ccc3cc(C(=O)NC4CC4)ccc3c2)cc1 [ABC-27] | 2.65
30 | COc1ccc(C(=O)Nc2ccc3cc(C(=O)Nc4nccs4)ccc3c2)cc1 [ABC-31] | 3.9
31 | Cc1cccc(C(=O)Nc2ccc3cc(C(=O)Nc4nccs4)ccc3c2)c1 [ABC-32] | 2.9
32 | COc1ccc(C(=O)Nc2ccc3cc(C(=O)Nc4cccc(C(F)(F)F)c4)ccc3c2)cc1 [ABC-33] | 6.6
33 | O=C(Nc1ccc2cc(C(=O)Nc3nccs3)ccc2c1)c1cccc(C(F)(F)F)c1 [ABC-34] | 1.6
34 | COc1ccccc1C(=O)Nc1ccc2cc(C(=O)NC(C)C)ccc2c1 [ABC-38] | 9
35 | O=C(Nc1ccc2cc(C(=O)Nc3nccs3)ccc2c1)c1cccc(Cl)c1 [ABC-45] | 6.7
36 | O=C(Nc1ccc2cc(C(=O)Nc3nccs3)ccc2c1)c1ccc(Cl)c(Cl)c1 [ABC-46] | 6.2

These compounds were tested on Calu-6 tumor cells (assay: In vitro antitumor cell activity, Calu-6). Conditions: Calu-6 cells.
Type: cell-based
Procedure: as §1, §2

Row | Structure (SMILES) | IC50 [µM]
37 | O=C(Nc1ccc2cc(C(=O)NC3CC3)ccc2c1)c1ccc(F)cc1 [ABC-21] | 48.5
38 | Cc1cccc(C(=O)Nc2ccc3cc(C(=O)Nc4nccs4)ccc3c2)c1 [ABC-32] | 28.1
39 | O=C(Nc1ccc2cc(C(=O)N3CCOCC3)ccc2c1)c1ccc(Cl)c(Cl)c1 [ABC-40] | 12.4
40 | CN1CCN(C(=O)c2ccc3cc(NC(=O)c4ccc(Cl)c(Cl)c4)ccc3c2)CC1 [ABC-42] | 7.1
41 | O=C(Nc1ccc2cc(C(=O)NC3CC3)ccc2c1)c1cccc(Cl)c1 [ABC-43] | 25.3
42 | O=C(Nc1ccc2cc(C(=O)NC3CC3)ccc2c1)c1ccc(Cl)c(Cl)c1 [ABC-44] | 5.5
43 | O=C(Nc1ccc2cc(C(=O)Nc3nccs3)ccc2c1)c1cccc(Cl)c1 [ABC-45] | 12.6

What follows are compounds tested on A549 tumor cells (assay: Cell proliferation inhibition assay (MTT), A549). Conditions: 48 hours.
Type: cell-based
Procedure: as §1, §2

Row | Structure (SMILES) | IC50 [µM]
44 | O=C(Nc1ccc2cc(C(=O)N3CCOCC3)ccc2c1)c1ccc(F)cc1 [ABC-11] | 28.1
45 | O=C(Nc1ccc2cc(C(=O)NC3CC3)ccc2c1)c1ccc(F)cc1 [ABC-21] | 48.5
46 | Cc1cccc(C(=O)Nc2ccc3cc(C(=O)Nc4nccs4)ccc3c2)c1 [ABC-32] | 14.2
47 | CN1CCN(C(=O)c2ccc3cc(NC(=O)c4ccc(Cl)c(Cl)c4)ccc3c2)CC1 [ABC-42] | 3.7
48 | O=C(Nc1ccc2cc(C(=O)NC3CC3)ccc2c1)c1cccc(Cl)c1 [ABC-43] | 25.2
49 | O=C(Nc1ccc2cc(C(=O)Nc3nccs3)ccc2c1)c1cccc(Cl)c1 [ABC-45] | 4.3
50 | O=C(Nc1ccc2cc(C(=O)Nc3nccs3)ccc2c1)c1ccc(Cl)c(Cl)c1 [ABC-46] | 1.6
51 | CC(C)NC(=O)c1ccc2cc(NC(=O)c3cccc(Cl)c3)ccc2c1 [ABC-47] | 12.4
52 | CC(C)NC(=O)c1ccc2cc(NC(=O)c3ccc(Cl)c(Cl)c3)ccc2c1 [ABC-48] | 12.6
